Tests used:
[1] = molecular target: human M4 muscarinic receptor (Homo sapiens, UniProt P08173); test: Potency at parent receptor of hM4Di; type: cell-based; conditions: data not shown
D1 dopamine receptor = molecular target: T1, D1 dopamine receptor (Homo sapiens, UniProt P21728); test: Off-target radioligand binding; conditions: 10 μM compound
T1 construct: expressed in transfected cells; host or cells: HEK-293 or CHO

D2 dopamine receptor = molecular target: T2, D2 dopamine receptor (Homo sapiens, UniProt P14416); test: Off-target radioligand binding; conditions: 10 μM compound
T2 construct: expressed in transfected cells; host or cells: HEK-293 or CHO

[2] = molecular target: T3, 5-HT1A serotonin receptor (Homo sapiens, UniProt P08908); test: Off-target radioligand binding; conditions: 10 μM compound
T3 construct: expressed in transfected cells; host or cells: HEK-293 or CHO

PDE3A = PDE3A (Homo sapiens, UniProt Q14432); test: Off-target enzyme assay; type: biochemical; conditions: 10 μM compound, not shown
PDE4D2 = PDE4D2 (Homo sapiens, UniProt Q08499); test: Off-target enzyme assay; type: biochemical; conditions: 10 μM compound, not shown
Lck kinase = Lck kinase (Homo sapiens, UniProt P06239); test: Off-target enzyme assay; type: biochemical; conditions: 10 μM compound, not shown
AChE = AChE (Homo sapiens, UniProt P22303); conditions: 10 μM compound, not shown
Sequence of AChE (P22303 32-614): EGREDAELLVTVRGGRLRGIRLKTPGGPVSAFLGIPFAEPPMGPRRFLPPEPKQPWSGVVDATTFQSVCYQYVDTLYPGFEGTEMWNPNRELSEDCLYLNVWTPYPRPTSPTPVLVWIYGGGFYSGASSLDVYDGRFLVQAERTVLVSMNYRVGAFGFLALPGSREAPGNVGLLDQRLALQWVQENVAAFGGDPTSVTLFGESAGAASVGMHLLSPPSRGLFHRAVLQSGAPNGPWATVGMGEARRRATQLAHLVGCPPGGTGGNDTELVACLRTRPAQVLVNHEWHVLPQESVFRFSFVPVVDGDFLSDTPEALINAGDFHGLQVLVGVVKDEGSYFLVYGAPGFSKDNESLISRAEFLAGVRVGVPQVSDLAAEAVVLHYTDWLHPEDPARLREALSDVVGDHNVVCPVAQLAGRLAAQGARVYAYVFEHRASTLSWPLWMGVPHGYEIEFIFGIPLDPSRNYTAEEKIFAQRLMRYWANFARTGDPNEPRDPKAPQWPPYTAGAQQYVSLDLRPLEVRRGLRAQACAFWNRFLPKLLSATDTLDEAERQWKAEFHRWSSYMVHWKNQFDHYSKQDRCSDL

Sequence of PDE4D2 (Q08499 303-809): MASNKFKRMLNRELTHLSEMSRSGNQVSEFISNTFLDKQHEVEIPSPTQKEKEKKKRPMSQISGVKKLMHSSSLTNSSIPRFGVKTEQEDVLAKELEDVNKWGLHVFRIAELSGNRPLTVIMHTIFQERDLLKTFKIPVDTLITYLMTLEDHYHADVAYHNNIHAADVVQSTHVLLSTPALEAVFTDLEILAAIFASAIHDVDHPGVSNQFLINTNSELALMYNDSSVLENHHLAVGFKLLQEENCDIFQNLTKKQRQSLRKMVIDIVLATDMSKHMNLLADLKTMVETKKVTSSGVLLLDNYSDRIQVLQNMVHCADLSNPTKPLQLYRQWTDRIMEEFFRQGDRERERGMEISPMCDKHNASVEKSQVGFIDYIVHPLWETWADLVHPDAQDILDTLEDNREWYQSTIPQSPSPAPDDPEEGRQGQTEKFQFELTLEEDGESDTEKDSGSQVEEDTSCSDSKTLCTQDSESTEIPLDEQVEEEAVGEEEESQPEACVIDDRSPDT
T3 sequence (P08908 whole entry): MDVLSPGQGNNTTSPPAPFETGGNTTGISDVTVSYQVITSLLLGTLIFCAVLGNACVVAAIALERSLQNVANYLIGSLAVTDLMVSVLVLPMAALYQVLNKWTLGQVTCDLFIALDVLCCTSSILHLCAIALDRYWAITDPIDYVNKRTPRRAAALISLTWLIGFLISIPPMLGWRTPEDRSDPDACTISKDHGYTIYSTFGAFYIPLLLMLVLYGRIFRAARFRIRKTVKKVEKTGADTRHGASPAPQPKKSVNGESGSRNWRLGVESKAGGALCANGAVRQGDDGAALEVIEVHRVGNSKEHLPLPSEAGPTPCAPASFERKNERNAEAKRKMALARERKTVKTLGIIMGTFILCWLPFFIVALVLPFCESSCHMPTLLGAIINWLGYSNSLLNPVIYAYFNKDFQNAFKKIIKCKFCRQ
Sequence of PDE3A (Q14432 whole entry, species assumed): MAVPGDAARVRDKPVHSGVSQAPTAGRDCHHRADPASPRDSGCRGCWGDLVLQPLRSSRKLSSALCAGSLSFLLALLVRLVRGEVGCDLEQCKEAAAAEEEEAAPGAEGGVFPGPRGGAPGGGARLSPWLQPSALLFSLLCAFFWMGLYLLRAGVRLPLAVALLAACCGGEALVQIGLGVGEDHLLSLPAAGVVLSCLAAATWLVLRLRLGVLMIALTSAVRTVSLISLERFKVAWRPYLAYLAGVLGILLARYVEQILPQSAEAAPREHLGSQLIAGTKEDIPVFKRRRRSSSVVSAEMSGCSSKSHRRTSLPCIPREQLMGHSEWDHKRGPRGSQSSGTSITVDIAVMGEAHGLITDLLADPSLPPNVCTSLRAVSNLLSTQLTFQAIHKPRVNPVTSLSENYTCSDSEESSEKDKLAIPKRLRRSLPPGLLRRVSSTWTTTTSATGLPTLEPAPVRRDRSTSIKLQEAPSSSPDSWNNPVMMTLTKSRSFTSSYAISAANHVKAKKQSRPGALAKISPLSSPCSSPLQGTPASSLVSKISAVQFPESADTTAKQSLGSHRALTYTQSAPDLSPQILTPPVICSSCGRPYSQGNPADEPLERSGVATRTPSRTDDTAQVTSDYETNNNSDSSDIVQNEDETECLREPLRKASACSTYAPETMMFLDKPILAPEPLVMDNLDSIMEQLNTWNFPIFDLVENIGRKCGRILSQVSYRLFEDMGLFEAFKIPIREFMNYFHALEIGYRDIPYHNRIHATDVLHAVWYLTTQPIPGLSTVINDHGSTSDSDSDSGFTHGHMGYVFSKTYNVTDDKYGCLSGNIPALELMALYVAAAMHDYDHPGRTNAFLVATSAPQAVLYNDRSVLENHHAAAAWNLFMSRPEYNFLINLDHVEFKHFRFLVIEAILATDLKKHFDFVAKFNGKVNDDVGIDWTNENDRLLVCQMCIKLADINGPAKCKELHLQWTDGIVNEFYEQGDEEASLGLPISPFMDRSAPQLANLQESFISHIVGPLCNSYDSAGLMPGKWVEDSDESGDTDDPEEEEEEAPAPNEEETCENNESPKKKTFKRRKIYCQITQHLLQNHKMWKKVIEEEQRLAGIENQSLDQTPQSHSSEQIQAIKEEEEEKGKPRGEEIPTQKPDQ
T2 sequence (P14416 1-414 isoform P14416-2): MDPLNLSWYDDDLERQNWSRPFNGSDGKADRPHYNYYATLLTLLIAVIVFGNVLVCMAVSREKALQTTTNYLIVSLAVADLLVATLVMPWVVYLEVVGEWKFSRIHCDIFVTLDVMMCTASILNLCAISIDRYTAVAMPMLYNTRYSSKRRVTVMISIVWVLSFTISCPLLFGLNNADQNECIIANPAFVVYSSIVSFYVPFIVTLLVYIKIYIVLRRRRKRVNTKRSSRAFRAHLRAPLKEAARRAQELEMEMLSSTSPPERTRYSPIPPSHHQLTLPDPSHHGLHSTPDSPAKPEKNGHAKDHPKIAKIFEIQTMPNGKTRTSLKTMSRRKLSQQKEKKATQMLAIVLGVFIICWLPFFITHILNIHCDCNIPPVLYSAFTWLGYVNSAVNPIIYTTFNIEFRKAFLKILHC
Sequence of Lck kinase (P06239 whole entry): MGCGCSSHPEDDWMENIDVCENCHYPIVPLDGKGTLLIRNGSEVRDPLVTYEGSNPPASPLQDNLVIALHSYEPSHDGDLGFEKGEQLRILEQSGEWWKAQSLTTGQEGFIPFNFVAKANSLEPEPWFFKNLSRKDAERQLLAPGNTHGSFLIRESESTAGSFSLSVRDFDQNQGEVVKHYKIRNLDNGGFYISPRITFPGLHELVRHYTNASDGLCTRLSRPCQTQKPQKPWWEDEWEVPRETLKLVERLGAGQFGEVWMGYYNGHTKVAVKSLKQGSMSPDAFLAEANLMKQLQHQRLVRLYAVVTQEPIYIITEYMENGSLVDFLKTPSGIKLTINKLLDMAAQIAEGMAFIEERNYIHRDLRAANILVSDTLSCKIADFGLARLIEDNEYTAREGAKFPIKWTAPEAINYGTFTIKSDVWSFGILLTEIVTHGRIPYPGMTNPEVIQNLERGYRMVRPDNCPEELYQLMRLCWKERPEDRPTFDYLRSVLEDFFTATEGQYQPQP
Sequence of human M4 muscarinic receptor (P08173 whole entry): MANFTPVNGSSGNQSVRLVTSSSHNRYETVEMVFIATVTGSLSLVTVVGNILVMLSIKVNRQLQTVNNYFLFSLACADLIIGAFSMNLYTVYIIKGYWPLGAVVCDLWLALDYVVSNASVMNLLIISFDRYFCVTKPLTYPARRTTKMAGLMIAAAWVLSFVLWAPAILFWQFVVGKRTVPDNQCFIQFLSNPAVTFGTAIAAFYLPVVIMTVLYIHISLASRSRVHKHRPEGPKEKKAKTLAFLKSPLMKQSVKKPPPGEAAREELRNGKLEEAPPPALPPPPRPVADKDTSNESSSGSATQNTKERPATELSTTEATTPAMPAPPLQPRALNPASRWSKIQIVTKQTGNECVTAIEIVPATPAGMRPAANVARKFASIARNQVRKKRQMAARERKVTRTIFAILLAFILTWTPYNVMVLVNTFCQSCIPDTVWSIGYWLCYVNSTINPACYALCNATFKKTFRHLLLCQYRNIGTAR
T1 sequence (P21728 whole entry): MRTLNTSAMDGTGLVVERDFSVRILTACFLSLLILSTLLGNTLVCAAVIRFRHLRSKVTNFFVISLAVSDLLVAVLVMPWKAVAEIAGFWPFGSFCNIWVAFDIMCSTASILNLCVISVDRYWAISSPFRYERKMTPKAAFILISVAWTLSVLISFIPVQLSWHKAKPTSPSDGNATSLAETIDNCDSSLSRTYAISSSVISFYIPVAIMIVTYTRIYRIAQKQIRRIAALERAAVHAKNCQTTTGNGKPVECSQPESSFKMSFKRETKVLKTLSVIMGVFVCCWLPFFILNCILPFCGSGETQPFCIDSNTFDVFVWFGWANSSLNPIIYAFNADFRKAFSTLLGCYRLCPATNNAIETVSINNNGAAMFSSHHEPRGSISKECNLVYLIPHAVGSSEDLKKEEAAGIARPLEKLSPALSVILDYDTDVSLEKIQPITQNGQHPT

## C[N+]1([O-])CCN(C2=Nc3cc(Cl)ccc3Nc3ccccc32)CC1 [CNO, clozapine-N-oxide]
[1]
  EC50: 6.3 µM
D1 dopamine receptor
  competitive inhibition of ligand binding: over 50%
D2 dopamine receptor
  competitive inhibition of ligand binding: over 50%
[2]
  competitive inhibition of ligand binding: over 50%
PDE3A
  inhibition: < 20%
PDE4D2
  inhibition: < 20%
Lck kinase
  inhibition: < 20%
AChE
  inhibition: < 20%
